This note sets out measurements from the NIST ThermoML archive (doi:10.1021/je0501585).

Numbers after ± are expanded uncertainties.

A short description of data set [1]: xn = mol fraction of the nth substance listed. As to conditions: 101 kPa, Liquid, x2 = 0; for viscosity: Capillary tube (Ostwald / Ubbelohde) method; for excess molar volume: Direct dilatometry; for speed of sound: Linear variable-path acoustic interferometer.
The conditions of data set [2]: Liquid; for viscosity / speed of sound: 101 kPa; for viscosity: Capillary tube (Ostwald / Ubbelohde) method; for speed of sound: Linear variable-path acoustic interferometer; for mass density: 101.33 kPa, Pycnometric method.

With `CCCCCCCCCC` [decane] + Cc1ccc(C)cc1, in data set [1] (303.15 K), the viscosity (usually the resistance of a fluid to flow) was 0.786 ± 0.021 mPa·s, the excess molar volume was determined as 0 ± 6e-09 m3/mol and the speed of sound (usually how fast a sound wave travels through the sample) is 1210 ± 5.2 m/s. In data set [1] (308.15 K), the viscosity came to 0.717 ± 0.019 mPa·s, the excess molar volume came out at 0 ± 6e-09 m3/mol and the speed of sound was found to be 1189 ± 5.2 m/s. Further, in data set [1] (313.15 K), the viscosity came out at 0.694 ± 0.019 mPa·s, the excess molar volume is given as 0 ± 6e-09 m3/mol and the speed of sound came out at 1175.3 ± 5.2 m/s.

For the molecule `CCCCCCCCCC` [decane], in data set [2] (303.15 K), the viscosity amounted to 0.786 ± 0.021 mPa·s; the speed of sound was found to be 1210 ± 5.2 m/s; the mass density – broadly, mass per unit of volume – stood at 722.3 ± 1.9 kg/m3. Also, in data set [2] (308.15 K), the viscosity was found to be 0.717 ± 0.019 mPa·s, the speed of sound is listed as 1189 ± 5.2 m/s and the mass density is 718.2 ± 1.9 kg/m3. Moreover, in data set [2] (313.15 K), the viscosity worked out at 0.694 ± 0.019 mPa·s, the speed of sound is 1175.3 ± 5.2 m/s and the mass density worked out at 714.7 ± 1.9 kg/m3. Moreover, in data set [2] (445.7 K), the vapor or sublimation pressure (commonly the pressure of vapour in equilibrium with the condensed phase) was 97.3 ± 4.9 kPa.

Consider `Cc1ccc(C)cc1` [1,4-dimethylbenzene], for which, in data set [2] (303.15 K), the viscosity is recorded as 0.566 ± 0.016 mPa·s, the speed of sound is 1283.7 ± 5.2 m/s and the mass density is 852.3 ± 2.3 kg/m3. Further, in data set [2] (308.15 K), the viscosity is 0.537 ± 0.015 mPa·s, the speed of sound is 1271 ± 5.2 m/s and the mass density is recorded as 847.9 ± 2.3 kg/m3. Moreover, in data set [2] (313.15 K), the viscosity is 0.513 ± 0.015 mPa·s, the speed of sound is listed as 1260 ± 5.2 m/s and the mass density is on record as 843.6 ± 2.2 kg/m3. In data set [2] (410 K), the “vapor or sublimation pressure” value is 97.3 ± 4.9 kPa.
